The subject of one assay is Aβ40. As to the kind of experiment: In vivo efficacy B-1b/B-2b: brain soluble Aβ40, MSD electrochemiluminescence multiplex. Conditions: mouse brain soluble fraction, dose 30 mg/kg oral dosing, 4 h after dose; untreated control set at 100; read-out: Aβ40 (% vs Ctrl)_Mean. The source says: (§1) To determine whether acute administration of an Aβ42 lowering agent would reduce Aβ42 levels in vivo, non-transgenic rodents, e.g. mice or rats were used. Animals treated with the Aβ42 lowering agent were examined and compared to those untreated or treated with vehicle and brain levels of soluble Aβ42, Aβ40, Aβ38, and Aβ37 were quantitated by Meso Scale Discovery's (MSD) electrochemiluminescence detection technology. Treatment periods varied from hours (h) to days and were adjusted based on the results of the Aβ42 lowering once a time course of onset of effect could be established.
(§2) A typical protocol for measuring Aβ42 lowering in vivo is shown but it is only one of many variations that could be used to optimize the levels of detectable Aβ. For example, Aβ42 lowering compounds were formulated in 20% of Captisol® (a sulfobutyl ether of β-cyclodextrin) in water or 20% hydroxypropyl β cyclodextrin. The Aβ42 lowering agents were administered as a single oral dose or by any acceptable route of administration to overnight fasted animals. After 4 h, the animals were sacrificed and Aβ42 levels were analysed.
(§3) Blood was collected by decapitation and exsanguinations in EDTA-treated collection tubes. Blood was centrifuged at 1900 g for 10 minutes (min) at 4° C. and the plasma recovered and flash frozen for later analysis. The brain was removed from the cranium and hindbrain. The cerebellum was removed and the left and right hemisphere were separated. The left hemisphere was stored at −18° C. for quantitative analysis of test compound levels. The right hemisphere was rinsed with phosphate-buffered saline (PBS) buffer and immediately frozen on dry ice and stored at −80° C. until homogenization for biochemical assays.
(§4) Mouse brains from non-transgenic animals were resuspended in 8 volumes of 0.4% DEA (diethylamine)/50 mM NaCl containing protease inhibitors (Roche-11873580001 or 04693159001) per gram of tissue, e.g. for 0.158 g brain, add 1.264 ml of 0.4% DEA. All samples were homogenized in the FastPrep-24 system (MP Biomedicals) using lysing matrix D (MPBio #6913-100) at 6 m/s for 20 seconds. Homogenates were centrifuged at 20800×g for 5 min and supernatants collected. Supernatants were centrifuged at 221.300×g for 50 min. The resulting high speed supernatants were then transferred to fresh eppendorf tubes. Nine parts of supernatant were neutralized with 1 part 0.5 M Tris-HCl pH 6.8 and used to quantify Aβ.
(§5) To quantify the amount of Aβ42, Aβ40, Aβ38, and Aβ37 in the soluble fraction of the brain homogenates, simultaneous specific detection of Aβ42, Aβ40, Aβ38, and Aβ37 was performed using MSD's electro-chemiluminescence multiplex detection technology. In this assay purified monoclonal antibodies specific for Abeta37 (JRD/Aβ37/3), Abeta38 (J&JPRD/Aβ38/5), Abeta40 (JRF/cAβ40/28), and Abeta42 (JRF/cAβ42/26) were coated on MSD 4-plex plates. Briefly, the standards (a dilution of synthetic Aβ42, Aβ40, Aβ38, and Aβ37) were prepared in 1.5 ml Eppendorf tube in Ultraculture, with final concentrations ranging from 10000 to 0.3 pg/m. The samples and standards were co-incubated with Sulfo-tag labelled JRF/rAβ/2 antibody to the N-terminus of Aβ as detector antibody. 50 μl of conjugate/sample or conjugate/standards mixtures were then added to the antibody-coated plate. The plate was allowed to incubate overnight at 4° C. in order to allow formation of the antibody-amyloid complex. Following this incubation and subsequent wash steps the assay was finished by adding read buffer according to the manufacturer's instructions (Meso Scale Discovery, Gaitherburg, Md.).
(§6) The SULFO-TAG emits light upon electrochemical stimulation initiated at the electrode. MSD Sector instrument SI6000 was used for signal read-out.
The results are shown in Table 5 (dose 30 mg/kg oral dosing) (value for untreated animals as control (Ctrl) was set at 100): […]

Assay [1] has as its system Aβ42. As to the kind of experiment: In vivo efficacy B-1b: brain soluble Aβ42, MSD electrochemiluminescence multiplex. Conditions: mouse brain soluble fraction, dose 30 mg/kg oral dosing, 4 h after dose; untreated control set at 100; read-out: Aβ42 (% vs Ctrl)_Mean.
Description: as §1, §2, §3, §4, §5, §6
In this model a Aβ42 lowering compared to untreated animals would be advantageous, in particular a Aβ42 lowering with at least 10%, more in particular a Aβ42 lowering with at least 20%. […]

Assay [2] has as its system Aβ42. As to the kind of experiment: Screening for γ-secretase-modulating activity: Aβ42 in supernatant of SKNBE2 cells carrying hAPP 695 wild type (Alphalisa). Type of assay: cell-based, human. Particulars: SKNBE2 human neuroblastoma cells carrying hAPP 695 wild type; overnight incubation; Alphalisa on supernatant. The gist of the method:
(§7)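 SKNBE2 human neuroblastoma cells expressing wild-type hAPP 695 (10^4/well) were incubated overnight at 37 °C, 5% CO2 with compound at several concentrations. Supernatant Aβ42 and Aβtotal measured by AlphaLISA sandwich immunoassays; IC50 from 4-parameter fit of percent of untreated control versus log concentration.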

The subject of a further assay is Aβ38. Nature of the assay: In vivo efficacy B-2b: brain soluble Aβ38, MSD electrochemiluminescence multiplex. Conditions: mouse brain soluble fraction, dose 30 mg/kg oral dosing, 4 h after dose; untreated control set at 100; read-out: Aβ38 (% vs Ctrl)_Mean.
Description: To determine whether acute administration of an Aβ38 increasing agents would increase Aβ38 levels in vivo, non-transgenic rodents, e.g. mice or rats were used. Animals treated with the Aβ38 increasing agents were examined and compared to those untreated or treated with vehicle and brain levels of soluble Aβ42, Aβ40, Aβ38, and Aβ37 were quantitated by MSD electrochemiluminescence detection technology. Treatment periods varied from hours (h) to days and were adjusted based on the results of the Aβ38 increase once a time course of onset of effect could be established.
A typical protocol for measuring Aβ38 increase in vivo is shown but it is only one of many variations that could be used to optimize the levels of detectable Aβ. For example, Aβ38 increasing agents were formulated in 20% of Captisol® (a sulfobutyl ether of β-cyclodextrin) in water or 20% hydroxypropyl β cyclodextrin. The Aβ38 increasing agents were administered as a single oral dose or by any acceptable route of administration to overnight fasted animals. After 4 h, the animals were sacrificed and Aβ38 levels were analysed.
as §3, §4, §5, §6
In this model a Aβ38 increase compared to untreated animals would be advantageous, in particular a Aβ38 increase with at least 10%, more in particular a Aβ38 increase with at least 20%. […]

The next assay deals with Aβtotal. As to the kind of experiment: Screening for γ-secretase-modulating activity: Aβtotal in supernatant of SKNBE2 cells carrying hAPP 695 wild type (Alphalisa). Conditions: overnight incubation, Alphalisa on supernatant. Type of assay: cell-based, human. The gist of the method: as §7
Where [3] appears, read: Homo sapiens, SKNBE2, SKNBE2 human neuroblastoma cells carrying hAPP 695 wild type.
Where [4] appears, read: SKNBE2 human neuroblastoma cells carrying hAPP 695 wild type.

As to `COc1c(C#N)ccc2[nH]c(-c3cn4c(n3)C(c3ccccc3C(F)(F)F)OCC4)cc12` (single isomer, unassigned) [Compound 44, 2-[5,6-dihydro-8-[2-(trifluoromethyl)phenyl]-8H-imidazo[2,1-c][1,4]oxazin-2-yl]-4-methoxy-1H-indole-5-carbonitrile], the response vs control in vivo at 30 mg/kg with Aβ40 was 31%; in the assay on Aβ42 [1], 27%; in the assay on Aβ38, 110%. In addition, the IC50 in the assay with Aβ42 [2] is 21 nM; in the assay on Aβtotal (setting [3]), > 10000 nM.
Turning to `COc1c(C#N)ccc2[nH]c(-c3nc4n(n3)CCOC4c3cccc(F)c3C(F)(F)F)cc12` (single isomer, unassigned) [Compound 133, 2-[8-[3-fluoro-2-(trifluoromethyl)phenyl]-5,6-dihydro-8H-[1,2,4]triazolo[5,1-c][1,4]oxazin-2-yl]-4-methoxy-1H-indole-5-carbonitrile], the figures for the response vs control in vivo at 30 mg/kg with Aβ40, with Aβ42 [1] and in the assay with Aβ38 were 107%, 98% and 119%, respectively. For the same compound, the IC50 in the assay with Aβ42 [2] is 59 nM; with Aβtotal (setting [3]), > 10000 nM.
The like results for `COc1c(C#N)ccc2[nH]c(-c3cn4c(n3)C(c3c(F)cccc3Cl)OCC4)cc12` (single isomer, unassigned) [Compound 122, 2-[8-(2-chloro-6-fluorophenyl)-5,6-dihydro-8H-imidazo[2,1-c][1,4]oxazin-2-yl]-4-methoxy-1H-indole-5-carbonitrile] were, in that order, 90%, 74%, 145%, 39 nM and > 10000 nM.
As to `COc1c(C#N)ccc2[nH]c(-c3cn4c(n3)C(c3c(F)cccc3C(F)(F)F)OCC4)cc12` (centres unmarked) [Compound 153, 2-[8-[2-fluoro-6-(trifluoromethyl)phenyl]-5,6-dihydro-8H-imidazo[2,1-c][1,4]oxazin-2-yl]-4-methoxy-1H-indole-5-carbonitrile], the response vs control in vivo at 30 mg/kg amounted to 76% in the assay on Aβ40, 60% in the assay on Aβ42 [1] and 236% with Aβ38. For the same compound, the IC50 with Aβ42 [2] was 36 nM; in the assay with Aβtotal (setting [4]), > 10000 nM.
As to `COc1c(C#N)ccc2[nH]c(-c3nc4n(n3)CCOC4c3ccccc3C(F)(F)F)cc12` (single isomer, unassigned) [Compound 56, 2-[5,6-dihydro-8-[2-(trifluoromethyl)phenyl]-8H-[1,2,4]triazolo[5,1-c][1,4]oxazin-2-yl]-4-methoxy-1H-indole-5-carbonitrile], the response vs control in vivo at 30 mg/kg in the assay with Aβ40 turned out to be 91%; in the assay with Aβ42 [1] it was 54%; with Aβ38 it was 139%. Further, the IC50 with Aβ42 [2] was 45 nM; in the assay with Aβtotal (setting [3]) it was > 10000 nM.
For `COc1c(C#N)ccc2[nH]c(-c3cn4c(n3)C(c3cccc(F)c3C)OCC4)cc12` (centres unmarked) [Compound 41, 2-[8-(3-fluoro-2-methylphenyl)-5,6-dihydro-8H-imidazo[2,1-c][1,4]oxazin-2-yl]-4-methoxy-1H-indole-5-carbonitrile], the figures for the response vs control in vivo at 30 mg/kg with Aβ40, in the assay on Aβ42 [1] and in the assay with Aβ38 were 35%, 34% and 140%, respectively. In addition, the IC50 is 20 nM with Aβ42 [2] and > 10000 nM in the assay with Aβtotal (setting [4]).
For `COc1c(C#N)ccc2[nH]c(-c3cn4c(n3)C(c3cc(C(F)(F)F)ccc3F)OCC4)cc12` (centres unmarked) [Compound 164, 2-[8-[2-fluoro-5-(trifluoromethyl)phenyl]-5,6-dihydro-8H-imidazo[2,1-c][1,4]oxazin-2-yl]-4-methoxy-1H-indole-5-carbonitrile] the same measures were 81%, 65%, 141%, 41 nM and > 10000 nM.
As to `COc1c(C#N)ccc2[nH]c(-c3cn4c(n3)C(c3cccc(F)c3C(F)(F)F)OCC4)cc12` (single isomer, unassigned) [Compound 131, 2-[8-[3-fluoro-2-(trifluoromethyl)phenyl]-5,6-dihydro-8H-imidazo[2,1-c][1,4]oxazin-2-yl]-4-methoxy-1H-indole-5-carbonitrile], the figures for the response vs control in vivo at 30 mg/kg with Aβ40, in the assay on Aβ42 [1] and with Aβ38 were 72%, 62% and 144%, respectively. In addition, the IC50 came out at 27 nM with Aβ42 [2] and 6460 nM in the assay on Aβtotal (setting [3]).
Consider `COc1c(C#N)ccc2[nH]c(-c3cn4c(n3)C(c3ccc(F)c(Cl)c3)OCC4)cc12` (centres unmarked) [Compound 154, 2-[8-(3-chloro-4-fluorophenyl)-5,6-dihydro-8H-imidazo[2,1-c][1,4]oxazin-2-yl]-4-methoxy-1H-indole-5-carbonitrile], for which the response vs control in vivo at 30 mg/kg in the assay with Aβ40 was found to be 101%; in the assay on Aβ42 [1] it was 90%; in the assay with Aβ38, 170%. Moreover, the IC50 was 65 nM with Aβ42 [2] and > 10000 nM with Aβtotal (setting [4]).
As to `COc1c(C#N)ccc2[nH]c(-c3nc4n(n3)CCOC4c3cccc(C)c3F)cc12` (single isomer, unassigned) [Compound 148, 2-[8-(2-fluoro-3-methylphenyl)-5,6-dihydro-8H-[1,2,4]triazolo[5,1-c][1,4]oxazin-2-yl]-4-methoxy-1H-indole-5-carbonitrile], the response vs control in vivo at 30 mg/kg in the assay with Aβ40 came to 118%; in the assay with Aβ42 [1] it was 110%; with Aβ38 it was 132%. For the same compound, the figures for the IC50 in the assay on Aβ42 [2] and with Aβtotal (setting [3]) were 74 nM and > 10000 nM, respectively.
